Entries after “also recorded” stand apart in the source; their conditions may differ. Where two headings read alike, the source gives them in different places. Square brackets hold non-standard residues; d marks the D form. Peptide text beside a SMILES is read from it. * marks the point of attachment. Dolaproine = CO[C@@H]([C@@H]1CCCN1)[C@@H](C)C(=O)O; Dil = CC[C@H](C)[C@H](NC)[C@@H](CC(=O)O)OC; X1 = C[C@@H](N*)[C@@H](O)c1ccccc1; NMeV = CN[C@H](C(=O)O)C(C)C
What was measured:
HT-29 cells = assay: Competitive cell cytotoxicity (MTT) assay with HT-29 cells; type: cell-based; details: in absence of 8C2, read-out: IC50 of SN38
Method: (§1) Log-phase MOLM-14, Ramos (RA 1), HT-29, LS174T, or NCI-N87 cells were seeded in 96-well microtiter plates at a density of 20,000 cells/well, 20,000 cells/well, 5,000 cells/well, 5,000 cells/well, and 10,000 cells/well, respectively, in 100 μL of culture medium. HT-29, LS174T, and NCI-N87 cells were allowed to adhere for 24 h before cell culture media was aspirated and replaced with 100 μL of fresh media containing a range of treatment for, 48 (LS174T), 96 (NCI-N87), or 120 (HT-29) h. MOLM-14 and Ramos cells were re-suspended with treatment solutions, where 100 μL of cell-treatment suspension was aliquoted into wells of a 96-well plate for 24 h. Treatment solutions consisted of calicheamicin, MMAE, topotecan, or SN38 with or without immunized animal plasma, purified anti-drug antibody, or antibody-drug conjugate (ADC) with or without plasma or anti-drug antibody. For MOLM-14 and Ramos cells, 25 μL of MTT solution (5 mg/mL in pH 7.4 1× PBS) was added directly to wells following treatment incubation. For adherent cells, treatment media was aspirated from wells and cells were washed three times with 100 μL of fresh media. Following the final wash, 100 μL of complete media and 25 μL of MTT solution were added to each well.

8C2 mAb = assay: Competitive ELISA of 8C2 with topotecan and SN38 (BSA-topotecan coated); type: binding, murine; details: 8C2 held constant at 10 nM; read-out: IC50 in competitive ELISA vs intact 8C2
Method: A competitive ELISA was employed to determine the affinity of intact 8C2 mAb for SN38 and topotecan. A BSA-topotecan conjugate was synthesized and immobilized as previously described (Shah et al., Int J Pharm. 2014; 465(1-2):228-238. doi:10.1016/j.ijpharm.2014.01.038) 8C2 concentration was held constant at 10 nM with increasing concentrations of topotecan or SN38. 8C2 drug samples were incubated for 2 hours at room temperature with agitation. Following incubation, wells were washed three times with 250 μL of PBS-T and three times with dH2O. Wells were then incubated with a 1:500 dilution anti-mouse AP conjugate secondary in PBS-T with 3% BSA for 1 h. After washing, 250 μL of 4 mg/ml PNPP in diethanolamine buffer pH 9.8 with absorbance being read at 405 nm. The change in absorbance over time data was fit to a four-parameter function in GraphPad Prism 7.

8C2 Fab = assay: Competitive SPR assay on exatecan chip; type: binding; details: 5 nM Fab, 1 hour incubation
Method: Exatecan was immobilized onto a CMS chip through amine coupling. […] Dilutions were incubated for one hour and subsequently injected over the exatecan immobilized chip. The observed maximum response data was fit to a 3 parameter inhibition equation in GraphPad Prism 7.
B/Bo is signal reached after a 3.5 minute injection with spiked in drugs divided by signal with Fab alone.

SKBR3 cells = assay: Competitive cell assay with SKBR3 cells; type: cell-based
Method: SKBR3 cells were diluted to 4000 cells/100 μL and 100 μL was added to individual wells of a 96 well culture plate. Cells were incubated overnight to allow cells to adhere to the plate. […] Dxd and SN38 were diluted at the indicated concentrations and incubated for 90 minutes. Following incubation dilutions were added to individual wells in triplicate with fresh media dilutions added on day 1, 3 and 5 with cell viability evaluated on day 7 using an MTT assay.

NCI-N87 cells [1] = assay: Cytotoxicity of MMAE and T-vc-MMAE in NCI-N87 cells with or without plasma; type: cell-based; details: 96 h, MMAE alone
Method: as §1

[2] = 8C2 VHH binding to SN38 immobilized on magnetic beads
Method: The complementarily determining regions of the 8C2 heavy chain were placed into the stable human framework m0 that was reported by Dimitrov et al (PMID 18687338). DNA encoding for the 8C2 VHH was synthesized by GeneArt. DNA sequences were ligated into the Pet22b vector between the XhoI and NdeI restriction enzyme sites. DNA was transformed into Shuffle T7 express E. coli cells and expressed using standard recombinant expression. To evaluate binding activity, 8C2 VHH was incubated with SN38 immobilized onto magnetic beads and bound VHH detected with an anti-HIS tag HRP labeled reporter antibody. Intact 8C2 mAb was incubated alone and in-combination with 8C2 VHH and 8C2 mAb binding evaluated with an anti-mouse IgG HRP reporter antibody.

MOLM-14 cells = assay: MTT cytotoxicity of DM4 on MOLM-14 cells (DF3A2); type: cell-based, human
Method: (§2) Log-phase Lovo or MOLM-14 cells were seeded in 96-well microtiter plates at a density of 5,000 cells/well, in 100 μL or 70 μL of culture medium, respectively. Lovo cells were allowed to adhere for 24 h before cell culture media was aspirated and replaced with 100 μL of PBS containing a range of treatment for 6h, then washed for 2 times before replacing with fresh media and incubated for additional 90 h. MOLM-14 cells were re-suspended with treatment solutions, where 100 μL of cell-treatment suspension was aliquoted into wells of a 96-well plate for 24 h. Treatment solutions consisted of DM-4 with or without purified anti-drug sdAb. For MOLM-14 cells, 10 μL of MTT solution (5 mg/mL in pH 7.4 1× PBS) was added directly to wells following treatment incubation. For adherent cells, treatment media was aspirated from wells and cells were washed three times with 100 μL of fresh media. Following the final wash, 100 μL of complete media and 25 μL of MTT solution were added to each well. Cells were incubated for 4 h in order to allow cells to reduce MTT to formazan dye. Once MTT was reduced, 100 μL of 10% SDS prepared in 0.01 M HCl was added to each well and incubated overnight to solubilize the formazan crystals. Formazan dye was measured at 570 nm and normalized by cell debris at 690 nm.

Lovo cells = assay: MTT cytotoxicity of DM1 and DM4 on Lovo cells; type: cell-based; details: 6 h exposure
Method: as §2, with “Lovo cells were allowed to adhere for 24 h before cell culture media was aspirated and replaced with 100 μL of PBS containing a range of treatment for 6h, then washed for 2 times before replacing with fresh media and incubated for additional 90 h.” left out

[3] = SPR dissociation screening on DM1-Biotin chip; type: binding; details: 20 min dissociation phase
Method: Preliminary screening of DM1/4 binders were performed using a neutravidin SPR chip with DM1-Biotin on the left channel. Phagemid purified sdAbs were flowed over the SPR chip for 2 minutes at a flow rate of 25 ul/min. After binding, sdAb was dissociated for 20 minutes. Observed sensorgrams were fit to an individual dissociation rate constant for each construct. Equilibrium and kinetic binding of 3A2 was assessed using a CM5 SPR chip with TDM1 immobilized on the left channel. […] Rate constants for 3A2-TDM1 association and dissociation were obtained through fitting of the observed sensorgrams for the 1.25, 2.5, 5, 7.5 and 10 nM injections to a 1:1 Langmuir binding model.

NCI-N87 cells [4] = assay: NCI-N87 pulse cytotoxicity assay with C7 sdAb prep; type: cell-based; details: NCI-N87, 2 h pulse, 96 h with sdAb prep diluted 1:6.67
Method: FIG. 43. Purification of C7 sdAb from BL21(DE3) transformed E. coli cells and inhibitory cell cytotoxicity assays. C7 sdAb was expressed to the periplasm using a pelB leader sequence and purified using IMAC Ni-NTA resin. […] Although the product was crude, it was employed in cell cytotoxicity assays. NCI-N87 cells were seeded at a density of 10,000 cells/well and pulse with treatment solutions for 2 h. After treatment removal and washing, cells were incubated for 96 h with sdAb prep, diluted 1:6.67 with fresh culture medium.
From the single domain library, there were nine positive hits from three rounds of panning against BSA-MMAF/T-vc-MMAE. The screening of isolated colonies determined all were inhibited by incubation with free MMAE (FIG. 42), with three >10-fold inhibition. One colony, C7 was selected for infection of BL21(DE3) cells and protein expression.

CCc1c2c(nc3ccc(O)cc13)-c1cc3c(c(=O)n1C2)COC(=O)[C@]3(O)CC [SN38]
IC50 (HT-29 cells): 8 nM
IC50 (8C2 mAb): 10.3 nM
IC50 for inhibition of Fab binding to immobilized exatecan (8C2 Fab): low-nanomolar
IC50 (SKBR3 cells; viability day 7, read-out: IC50 of free SN38): 1.4 nM

CC[C@@]1(O)C(=O)OCc2c1cc1n(c2=O)Cc2c-1nc1cc(F)c(C)c3c1c2[C@@H](NC(=O)CO)CC3 [Dxd]
IC50 for inhibition of Fab binding to immobilized exatecan (8C2 Fab): low-nanomolar
IC50 (SKBR3 cells; viability day 7, read-out: IC50 of Dxd alone): 0.7 nM

CC[C@H](C)[C@@H]([C@@H](CC(=O)N1CCC[C@H]1[C@H](OC)[C@@H](C)C(=O)N[C@H](C)[C@@H](O)c1ccccc1)OC)N(C)C(=O)[C@@H](NC(=O)[C@@H](NC)C(C)C)C(C)C [MMAE, monomethyl auristatin E] (H-[NMeV]V[Dil][Dolaproine]-X1)
IC50 (NCI-N87 cells [1]): 0.496 ± 0.0327 nM

B1: 8C2 VHH: heavy chain CDRs of 8C2 placed into a stable human framework, SEQ ID NO:69 (protein)
VHH: QVQLVQSGGGLVQPGGSLRLSCAASGFNIKDTYIHWMSWVRQAPGKGLEWVSPDLANDNTKYDPKYYADSVKGRFTISRDNSKNTLYLQMNTLRAEDTAVYYCATWGAIITLGGWGQTMVTVSS
modifications: 8C2 VHH
increase in binding signal vs beads with blank buffer ([2]; anti-HIS detection): 2 ×
decrease of 8C2 mAb binding by addition of 8C2 VHH ([2]; anti-mouse IgG detection): ~2 fold

B2: DF3A2 (protein)
VHH: QVQLQESGGGLVQPGGSLRLSCAASGGIFGISYMGWYRQAPGKQREPVALITSGGDTAYGDSVKGRFAISRDNAKNTVYLQMNSLKPDDTSAYYCAAGFYRSDSPNRYDYWGQGTQVTVSS
modifications: DF3A2
fold inhibition of DM4 cytotoxicity (MOLM-14 cells): 2.1 fold
fold shift of DM4 IC50 (Lovo cells): 11 fold
dissociation kinetics [3]: longest dissociation rates; also recorded: longer dissociation rates

B3: MC7 (protein)
VHH: QVQLVQSGGGLVQAGGSLRLSCVASGRTFSMYRMGWFRQAPGKEREFVASIRWSGGSTYYTDSVKDRFTISRDNAKNTVYLQMNSLKPEDTAVYYCAADPVWRLNSWYRGAVGYWGQGTQVTVSS
modifications: MC7
fold enhancement of T-vc-MMAE cytotoxicity (NCI-N87 cells [4]): 5.2 fold
fold inhibition of MMAE cytotoxicity (NCI-N87 cells [4]): 5.6 fold
